Assay results as given in US12421206B2, “Aryl-n-aryl derivatives for treating a RNA virus infection” (ABIVAX, priority 2018, dated 2025).

Columns and labels:
RSV A2 = assay: RSV inhibition (cytopathic effect inhibition) using Viral ToxGlo assay in HEp-2 cells; assay type: cell-based; conditions: human respiratory syncytial virus, RSV A2, MOI 0.5, HEp-2 cells, 72 h p.i.
Summary of the method: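 HEp-2 cells in EMEM with 2% FBS were infected with RSV A2 at MOI 0.5 immediately after compound (≤1% DMSO) and incubated 72 h at 37 °C. Viral ToxGlo luminescence gave % cytopathic effect inhibition versus virus control, plus cytotoxicity versus cell control; EC50 derived from dose-response.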

DENV-2 strain 16681 = assay: DENV-2 inhibition (cytopathic effect inhibition) using Viral ToxGlo assay in A549 cells; assay type: cell-based, Dengue 2 virus; conditions: Dengue virus, DENV2, 120 h, compounds at 10 μM, MOI 0.5, 5 days p.i., read-out: % DENV-2 Inhibition Mean (n = 3)

Compound	EC50 (RSV A2) [nM]	inhibition at 10 µM (DENV-2 strain 16681) [%]
O=C(NCCC1CCCCC1)c1cccc(Nc2ccc(OCc3ccccn3)cc2)c1 [Compound 38, N-(2-cyclohexylethyl)-3-((4-(pyridin-2-ylmethoxy)phenyl)amino)benzamide]	281	65
Cc1cc(OCc2ccccn2)ccc1Nc1cccc(C(=O)NCCC2CC2)c1 [Compound 45, N-(2-cyclopropylethyl)-3-((2-methyl-4-(pyridin-2-ylmethoxy)phenyl)amino)benzamide]	280	89
Cc1cc(OCc2ccccn2)ccc1Nc1cccc(C(=O)NCCC2CCC2)c1 [Compound 46, N-(2-cyclobutylethyl)-3-((2-methyl-4-(pyridin-2-ylmethoxy)phenyl)amino)benzamide]	199	71
CCCC(C)NC(=O)c1cccc(Nc2ccc(OCc3ccccn3)cc2)c1 (stereo not shown) [Compound 64, N-(pentan-2-yl)-3-((4-(pyridin-2-ylmethoxy)phenyl)amino)benzamide]	341	93
Cc1cc(OCc2ccccn2)ccc1Nc1cccc(NC(=O)NCCC(C)C)c1 [Compound 68, 1-isopentyl-3-(3-((2-methyl-4-(pyridin-2-ylmethoxy)phenyl)amino)phenyl)urea]	144	70
